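Five concentrations, 48 hours, 96-well plates. The concentration for 50% growth inhibition is given as GI50.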 Calls of active or inactive are those of the source. Rule as the data show it: active = GI50 up to about 1.1 µM and inactive = higher.
Tests used:
Test in all cases: NCI-60 cell line screen, 48 h
ACHN = test system: ACHN
COLO 205 = test system: COLO 205
HCT-15 = test system: HCT-15
HT-29 = test system: HT-29
IGROV-1 = test system: IGROV-1
K562 = test system: K562
KM12 = test system: KM12
NCI-H23 = test system: NCI-H23
NCI-H460 = test system: NCI-H460
OVCAR-3 = test system: OVCAR-3
OVCAR-8 = test system: OVCAR-8
SF-539 = test system: SF-539
SK-MEL-5 = test system: SK-MEL-5
SK-OV-3 = test system: SK-OV-3
SN12C = test system: SN12C
SNB-19 = test system: SNB-19
SNB-75 = test system: SNB-75
SW-620 = test system: SW-620
U-251 = test system: U-251
786-0 = test system: 786-0

| SMILES | GI50 (ACHN) | GI50 (COLO 205) | GI50 (HCT-15) [µM] | GI50 (HT-29) | GI50 (IGROV-1) | GI50 (K562) | GI50 (KM12) | GI50 (NCI-H23) | GI50 (NCI-H460) | GI50 (OVCAR-3) | GI50 (OVCAR-8) | GI50 (SF-539) | GI50 (SK-MEL-5) | GI50 (SK-OV-3) | GI50 (SN12C) | GI50 (SNB-19) | GI50 (SNB-75) | GI50 (SW-620) | GI50 (U-251) | GI50 (786-0) |
| --- | --- | --- | --- | --- | --- | --- | --- | --- | --- | --- | --- | --- | --- | --- | --- | --- | --- | --- | --- | --- |
| [O-][Cl+3]([O-])([O-])O.c1ccc(C2=NN2c2ccccc2)cc1 | 0.927 µM (active) | 7.76 µM (inactive) | 7.89 | 29.3 µM (inactive) | 34 µM (inactive) | 2.32 µM (inactive) | 7.41 µM (inactive) | 85.7 µM (inactive) | 71.8 µM (inactive) | 84.9 µM (inactive) | > 100 µM (inactive) | 76.2 µM (inactive) | 13.8 µM (inactive) | > 100 µM (inactive) | > 100 µM (inactive) | > 100 µM (inactive) | > 100 µM (inactive) | 6.01 µM (inactive) | > 100 µM (inactive) | – |
| CC(C)(C)OC(=O)NC(Cc1ccc(OCc2ccccc2)cn1)C(=O)NCc1ccccc1 (stereo not drawn) | 31.3 µM (inactive) | 17.1 µM (inactive) | 24.6 | 29.9 µM (inactive) | 32.3 µM (inactive) | 22.1 µM (inactive) | 29.7 µM (inactive) | 17 µM (inactive) | 22.7 µM (inactive) | 19.3 µM (inactive) | 26.3 µM (inactive) | – | 13.3 µM (inactive) | 22.1 µM (inactive) | 28.1 µM (inactive) | 49.9 µM (inactive) | 27.1 µM (inactive) | 31.3 µM (inactive) | 26.1 µM (inactive) | 27.1 µM (inactive) |
| COC(=O)[C@@H](N1C(=O)c2ccccc2C1=O)C1(C)CC(Cl)=NO1 (stereo partly drawn) | > 100 µM (inactive) | > 100 µM (inactive) | > 100 | > 100 µM (inactive) | 17.7 µM (inactive) | > 100 µM (inactive) | > 100 µM (inactive) | 48.3 µM (inactive) | > 100 µM (inactive) | > 100 µM (inactive) | 19.1 µM (inactive) | – | > 100 µM (inactive) | 33.8 µM (inactive) | 33 µM (inactive) | 24.8 µM (inactive) | 17.8 µM (inactive) | > 100 µM (inactive) | 26.2 µM (inactive) | 34.8 µM (inactive) |
| [O-]c1c[n+](CC[n+]2cc([O-])on2)no1 | > 100 µM (inactive) | > 100 µM (inactive) | > 100 | > 100 µM (inactive) | > 100 µM (inactive) | > 100 µM (inactive) | > 100 µM (inactive) | > 100 µM (inactive) | > 100 µM (inactive) | > 100 µM (inactive) | > 100 µM (inactive) | – | > 100 µM (inactive) | > 100 µM (inactive) | > 100 µM (inactive) | > 100 µM (inactive) | > 100 µM (inactive) | > 100 µM (inactive) | > 100 µM (inactive) | > 100 µM (inactive) |
| CC12CCC3C(CCC4(O)C=CCCC34C=O)C1(O)CC(O)C2c1ccc(=O)oc1 (stereo not drawn) | – | 0.113 µM (active) | 0.0658 | 0.117 µM (active) | 0.0681 µM (active) | 0.0741 µM (active) | 0.0792 µM (active) | 0.0512 µM (active) | 0.0527 µM (active) | 0.0625 µM (active) | 0.0682 µM (active) | < 0.05 µM (active) | 0.0565 µM (active) | 0.109 µM (active) | 0.0519 µM (active) | 0.127 µM (active) | 0.0713 µM (active) | 0.0741 µM (active) | 0.08 µM (active) | – |
| CO[C@H]1O[C@@H]2CO[C@@H](c3ccccc3)O[C@H]2[C@@H]2C/C=C\CCC[C@@]12O | 17.3 µM (inactive) | 17.2 µM (inactive) | 24.4 | 17.9 µM (inactive) | 30 µM (inactive) | 20 µM (inactive) | 22.5 µM (inactive) | 24 µM (inactive) | 16.8 µM (inactive) | 16.3 µM (inactive) | 34.1 µM (inactive) | – | 17.8 µM (inactive) | 29 µM (inactive) | 17.7 µM (inactive) | 38.7 µM (inactive) | 59.6 µM (inactive) | 26.9 µM (inactive) | 20.8 µM (inactive) | 16.7 µM (inactive) |
| CC[C@]1(Cc2ccc(OC)c(OC)c2)C=[N+]([O-])O[C@H](OCc2ccccc2)[C@@H]1OC(C)=O | 27.6 µM (inactive) | 17.1 µM (inactive) | 29.8 | 29.5 µM (inactive) | 25.1 µM (inactive) | 20.9 µM (inactive) | 22.2 µM (inactive) | 34.9 µM (inactive) | 31 µM (inactive) | 15.8 µM (inactive) | 30.3 µM (inactive) | – | 27.9 µM (inactive) | 48.9 µM (inactive) | – | 58.3 µM (inactive) | 30.5 µM (inactive) | 32.8 µM (inactive) | 32.3 µM (inactive) | 36.2 µM (inactive) |
| CC(C)=CCc1c(O)ccc2c1OC1c3ccc(O)c(CC=C(C)C)c3OCC21 (stereo not drawn) | – | 17.3 µM (inactive) | 3.96 | > 44.4 µM (inactive) | 10.3 µM (inactive) | 4.42 µM (inactive) | 10.2 µM (inactive) | > 38.8 µM (inactive) | 5.15 µM (inactive) | 13.6 µM (inactive) | 8.22 µM (inactive) | 10.5 µM (inactive) | 5.98 µM (inactive) | 19.2 µM (inactive) | 14 µM (inactive) | 13.6 µM (inactive) | 15.9 µM (inactive) | 6.79 µM (inactive) | 7.67 µM (inactive) | – |
| COC(=O)C1=C(OC(=O)/C(=C/c2ccc(Cl)cc2)c2ccc(Cl)cc2)C(C(=O)OC)[C@]2(O)[C@@H](C(=O)OC)[C@H]1C[C@@H](c1ccccc1)[C@@H]2C(=O)OC (stereo partly drawn) | > 100 µM (inactive) | > 100 µM (inactive) | > 100 | > 100 µM (inactive) | 38.8 µM (inactive) | 91.6 µM (inactive) | > 100 µM (inactive) | > 100 µM (inactive) | > 100 µM (inactive) | 27 µM (inactive) | > 100 µM (inactive) | > 100 µM (inactive) | > 100 µM (inactive) | 64 µM (inactive) | > 100 µM (inactive) | 59 µM (inactive) | > 100 µM (inactive) | > 100 µM (inactive) | 26.5 µM (inactive) | – |
| O=C(O)CCC(NC(=O)c1ccc(Nc2cnc3cc(C(F)(F)F)ccc3n2)cc1)C(=O)O (stereo not drawn) | – | > 100 µM (inactive) | > 100 | > 100 µM (inactive) | > 100 µM (inactive) | > 100 µM (inactive) | > 100 µM (inactive) | > 100 µM (inactive) | > 100 µM (inactive) | > 100 µM (inactive) | > 100 µM (inactive) | > 100 µM (inactive) | > 100 µM (inactive) | > 100 µM (inactive) | > 100 µM (inactive) | > 81.5 µM (inactive) | > 35.6 µM (inactive) | > 100 µM (inactive) | > 100 µM (inactive) | – |
| O=C1C=CC[C@H]2O[C@@H](COC(=O)Cc3ccccc3)C[C@H]2O1 | 32.1 µM (inactive) | 47.5 µM (inactive) | 18.4 | 25.5 µM (inactive) | 20 µM (inactive) | 55.6 µM (inactive) | 18.2 µM (inactive) | 20.9 µM (inactive) | 31.9 µM (inactive) | 38.6 µM (inactive) | 28.7 µM (inactive) | 29.6 µM (inactive) | 49.7 µM (inactive) | > 100 µM (inactive) | 66.1 µM (inactive) | 25.6 µM (inactive) | 30.4 µM (inactive) | 24 µM (inactive) | > 10 µM (inactive) | – |
| Cc1c(C2=NN=C(/N=N/c3c(O)cccc3O)/C2=C/c2ccccc2)c(=O)n(-c2ccccc2)n1C | – | > 100 µM (inactive) | > 100 | > 100 µM (inactive) | > 100 µM (inactive) | > 100 µM (inactive) | > 100 µM (inactive) | > 100 µM (inactive) | > 100 µM (inactive) | > 100 µM (inactive) | > 100 µM (inactive) | > 100 µM (inactive) | > 100 µM (inactive) | > 100 µM (inactive) | > 100 µM (inactive) | > 100 µM (inactive) | > 100 µM (inactive) | > 100 µM (inactive) | > 100 µM (inactive) | – |
| COc1cc(CCN(C)C)cc(OC)c1OC | > 100 µM (inactive) | > 100 µM (inactive) | > 100 | > 100 µM (inactive) | > 100 µM (inactive) | > 100 µM (inactive) | > 100 µM (inactive) | > 100 µM (inactive) | > 100 µM (inactive) | > 100 µM (inactive) | > 100 µM (inactive) | > 100 µM (inactive) | > 100 µM (inactive) | > 100 µM (inactive) | > 100 µM (inactive) | > 100 µM (inactive) | > 100 µM (inactive) | > 100 µM (inactive) | > 100 µM (inactive) | – |
| COc1ccc2cc(C(C)C(=O)N3C(=O)OCC3(C)C)ccc2c1 (stereo not drawn) | > 100 µM (inactive) | > 100 µM (inactive) | > 100 | > 100 µM (inactive) | > 100 µM (inactive) | > 100 µM (inactive) | – | > 100 µM (inactive) | > 100 µM (inactive) | > 100 µM (inactive) | > 100 µM (inactive) | – | > 100 µM (inactive) | > 100 µM (inactive) | > 100 µM (inactive) | > 100 µM (inactive) | 46.6 µM (inactive) | > 100 µM (inactive) | > 100 µM (inactive) | > 100 µM (inactive) |
| CC1(C)S[C@@H]2[C@H](NC(=O)CCC[C@@H](N)C(=O)O)C(=O)N2[C@H]1C(=O)O [ADICILLIN] | – | > 50 µM (inactive) | > 50 | > 50 µM (inactive) | > 50 µM (inactive) | > 50 µM (inactive) | > 50 µM (inactive) | > 50 µM (inactive) | > 50 µM (inactive) | > 50 µM (inactive) | > 19.9 µM (inactive) | > 50 µM (inactive) | > 15 µM (inactive) | > 41 µM (inactive) | > 50 µM (inactive) | > 50 µM (inactive) | > 50 µM (inactive) | > 31.6 µM (inactive) | > 25.6 µM (inactive) | – |

From ChEMBL document CHEMBL1201862, “PubChem BioAssay data set” (2004)
